Experimental data reported in ChEMBL document CHEMBL1773008 (ACS Med Chem Lett, 2010).
Activity calls are given as the source filed them. The calls are words filed in the database; no cut-off is given here.

How the values were obtained:
[1] = test system: MCF7; assay: Antiproliferative activity against human MCF7 cells after 72 hrs by MTS assay; assay type: functional, cell-based; conditions: MCF7, 72 h
[2] = test system: SK-BR-3; assay: Antiproliferative activity against human SKBR3 cells after 72 hrs by MTS assay; assay type: functional, cell-based; conditions: SK-BR-3, 72 h
[3] = test system: SK-BR-3; assay: Ratio of IC50 for compound to IC50 for novobiocin for human SKBR3 cells; assay type: functional
[4] = target: Heat shock protein HSP 90-beta (Homo sapiens) (UniProt P08238); assay: Inhibition of HSP90 in human MCF7 cells assessed as Akt degradation after 24 hrs by Western blot analysis; assay type: cell-based
Chain of Heat shock protein HSP 90-beta (Homo sapiens) (P08238 whole entry): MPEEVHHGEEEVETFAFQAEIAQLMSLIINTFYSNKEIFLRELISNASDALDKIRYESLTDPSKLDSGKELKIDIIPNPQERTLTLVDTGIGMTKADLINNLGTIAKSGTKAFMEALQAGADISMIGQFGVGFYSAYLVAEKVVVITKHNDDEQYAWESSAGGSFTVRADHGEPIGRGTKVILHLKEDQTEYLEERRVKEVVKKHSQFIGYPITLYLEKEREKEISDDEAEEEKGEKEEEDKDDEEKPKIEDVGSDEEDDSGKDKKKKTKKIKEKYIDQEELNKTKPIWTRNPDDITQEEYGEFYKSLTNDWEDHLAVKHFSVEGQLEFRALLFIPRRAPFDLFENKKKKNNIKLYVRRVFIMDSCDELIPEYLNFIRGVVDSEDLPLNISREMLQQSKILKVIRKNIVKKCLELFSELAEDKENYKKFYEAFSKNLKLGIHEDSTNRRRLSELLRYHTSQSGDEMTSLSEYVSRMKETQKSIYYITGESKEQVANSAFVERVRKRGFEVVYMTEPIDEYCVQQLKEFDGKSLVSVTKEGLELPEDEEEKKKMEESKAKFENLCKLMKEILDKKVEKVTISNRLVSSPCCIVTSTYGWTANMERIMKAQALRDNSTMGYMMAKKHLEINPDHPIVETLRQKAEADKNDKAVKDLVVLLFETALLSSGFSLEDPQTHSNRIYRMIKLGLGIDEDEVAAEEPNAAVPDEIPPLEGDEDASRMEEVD

[5] = target: Heat shock protein HSP 90-beta (Homo sapiens) (UniProt P08238); assay: Inhibition of HSP90 in human MCF7 cells assessed as Akt degradation at 0.5 to 7.5 uM after 24 hrs by Western blot analysis; assay type: cell-based
[6] = target: Heat shock protein HSP 90-beta (Homo sapiens) (UniProt P08238); assay: Inhibition of HSP90 in human MCF7 cells assessed as Her2 degradation at 0.5 to 7.5 uM after 24 hrs by Western blot analysis; assay type: cell-based
[7] = target: Heat shock protein HSP 90-beta (Homo sapiens) (UniProt P08238); assay: Inhibition of HSP90 in human MCF7 cells assessed as Raf degradation after 24 hrs by Western blot analysis; assay type: cell-based
[8] = target: Heat shock protein HSP 90-beta (Homo sapiens) (UniProt P08238); assay: Inhibition of HSP90 in human MCF7 cells assessed as Raf degradation at 0.5 to 7.5 uM after 24 hrs by Western blot analysis; assay type: cell-based
[9] = target: Heat shock protein HSP 90-beta (Homo sapiens) (UniProt P08238); assay: Inhibition of HSP90 in human MCF7 cells assessed as Her2 degradation at after 24 hrs by Western blot analysis; assay type: cell-based
[10] = target: Heat shock protein HSP 90-beta (Homo sapiens) (UniProt P08238); assay: Inhibition of HSP90 in human MCF7 cells assessed as Raf degradation at 0.5 to 100 uM after 24 hrs by Western blot analysis; assay type: cell-based
[11] = test system: MCF7; assay: Ratio of IC50 for compound to IC50 for novobiocin for human MCF7 cells; assay type: functional
[12] = test system: SK-BR-3; assay: Ratio of IC50 for compound to IC50 for DHN2 for human SKBR3 cells; assay type: functional
[13] = target: Heat shock protein HSP 90-beta (Homo sapiens) (UniProt P08238); assay: Inhibition of HSP90 in human MCF7 cells assessed as Akt degradation at 0.5 to 100 uM after 24 hrs by Western blot analysis; assay type: cell-based
[14] = target: Heat shock protein HSP 90-beta (Homo sapiens) (UniProt P08238); assay: Inhibition of HSP90 in human MCF7 cells assessed as Her2 degradation at 0.5 to 100 uM after 24 hrs by Western blot analysis; assay type: cell-based

Structure (SMILES)	IC50 [1]	IC50 [2]	Ratio IC50 [3]	other results
CC(=O)Oc1ccc(C(=O)Nc2cc3ccc(OCCN(C)C)c(C)c3oc2=O)cc1CC=C(C)C	4760 nM	1320 nM	–	–
CC(C)=CCc1cc(C(=O)Nc2cc3ccc(O[C@H]4OCCC[C@H]4O)c(C)c3oc2=O)ccc1O	6450 nM	7870 nM	1500	–
CC(C)=CCc1cc(C(=O)Nc2cc3ccc(O[C@@H]4OCCC[C@H]4O)c(C)c3oc2=O)ccc1O	10200 nM	30000 nM	1500	–
CC(C)=CCc1cc(C(=O)Nc2cc3ccc(OCCN(C)C)c(C)c3oc2=O)ccc1O	13500 nM	9450 nM	–	–
CC(C)=CCc1cc(C(=O)Nc2cc3ccc(O[C@@H]4C[C@H](O)CO4)c(C)c3oc2=O)ccc1O	> 100000 nM	22200 nM	1500	–
CNCCOc1ccc2cc(NC(=O)c3ccc(OC(C)=O)c(CC=C(C)C)c3)c(=O)oc2c1C	2080 nM	910 nM	–	–
CC(C)=CCc1cc(C(=O)Nc2cc3ccc(O[C@H]4C[C@H](O)CCO4)c(C)c3oc2=O)ccc1O	1560 nM	3110 nM	200	inhibition [10]: Active; Ratio IC50 [11]: 200; inhibition [4]: Dose-dependent effect; Ratio IC50 [12]: 3; inhibition [13]: Active; inhibition [7]: Dose-dependent effect; inhibition [14]: Active; inhibition [9]: Dose-dependent effect
CC(C)=CCc1cc(C(=O)Nc2cc3ccc(OC4CCCNC4)c(C)c3oc2=O)ccc1O (stereo unspecified)	1680 nM	790 nM	–	–
CC(C)=CCc1cc(C(=O)Nc2cc3ccc(O[C@@H]4OC[C@@H](O)[C@H]4O)c(C)c3oc2=O)ccc1O	14300 nM	14400 nM	1500	–
CC(=O)Oc1ccc(C(=O)Nc2cc3ccc(OC4CCCN(C)C4)c(C)c3oc2=O)cc1CC=C(C)C (stereo unspecified)	1570 nM	1420 nM	–	–
CC(=O)Oc1ccc(C(=O)Nc2cc3ccc(OC4CCCNC4)c(C)c3oc2=O)cc1CC=C(C)C (stereo unspecified)	1540 nM	1230 nM	–	–
CC(C)=CCc1cc(C(=O)Nc2cc3ccc(O[C@@H]4OCC[C@@H](O)[C@H]4O)c(C)c3oc2=O)ccc1O	13300 nM	6960 nM	1500	–
CC(C)=CCc1cc(C(=O)Nc2cc3ccc(O[C@H]4OCC[C@@H](O)[C@H]4O)c(C)c3oc2=O)ccc1O	10000 nM	10700 nM	1500	–
CC(C)=CCc1cc(C(=O)Nc2cc3ccc(O[C@H]4C[C@H](O)CO4)c(C)c3oc2=O)ccc1O	22500 nM	21500 nM	1500	–
CO[C@@H]1[C@@H](O)[C@@H](O)[C@H](Oc2ccc3cc(NC(=O)c4ccc(O)c(CC=C(C)C)c4)c(=O)oc3c2C)OC1(C)C	11300 nM	10900 nM	1500	–
CC(C)=CCc1cc(C(=O)Nc2cc3ccc(OC4CCCN(C)C4)c(C)c3oc2=O)ccc1O (stereo unspecified)	10100 nM	4690 nM	–	–

More lines, in order of falling IC50 [1], values ahead:

IC50 [1]	IC50 [2]	Structure (SMILES)	Ratio IC50 [3]	other results
1530 nM	560 nM	CC(=O)Oc1ccc(C(=O)Nc2cc3ccc(OC4CCNCC4)c(C)c3oc2=O)cc1CC=C(C)C	–	–
1350 nM	440 nM	CC(C)=CCc1cc(C(=O)Nc2cc3ccc(OCCCN(C)C)c(C)c3oc2=O)ccc1O	–	–
1340 nM	5070 nM	CC(C)=CCc1cc(C(=O)Nc2cc3ccc(O[C@@H]4C[C@H](O)CCO4)c(C)c3oc2=O)ccc1O	1500	–
1330 nM	750 nM	CNCCOc1ccc2cc(NC(=O)c3ccc(O)c(CC=C(C)C)c3)c(=O)oc2c1C	–	–
1180 nM	460 nM	CC(=O)Oc1ccc(C(=O)Nc2cc3ccc(OCCCN(C)C)c(C)c3oc2=O)cc1CC=C(C)C	–	–
1180 nM	580 nM	CC(=O)Oc1ccc(C(=O)Nc2cc3ccc(OC4CCN(C)CC4)c(C)c3oc2=O)cc1CC=C(C)C	–	–
1090 nM	–	CC(C)=CCc1cc(C(=O)Nc2cc3ccc(OC4CCN(C)CC4)c(C)c3oc2=O)ccc1O	–	–
850 nM	470 nM	CC(C)=CCc1cc(C(=O)Nc2cc3ccc(OC4CCNCC4)c(C)c3oc2=O)ccc1O	–	inhibition [4]: Dose-dependent effect; inhibition [5]: Active; inhibition [6]: Active; inhibition [7]: Dose-dependent effect; inhibition [8]: Active; inhibition [9]: Dose-dependent effect
